Laboratory results reported in patent US9119808B1, “Treating neurodegenerative diseases with GGA or a derivative thereof” (COYOTE PHARMACEUTICALS, INC., priority 2012, dated 2015).

How the values were obtained:
SOD1 mouse model of ALS = experiment: SOD1 mouse model of ALS: survival and cat-walk gait (Assay 4); type: in vivo; conditions: for Run Duration, CNS-102-vehicle difference of averages / Stride Length, CNS-102-vehicle difference of averages / Swing Speed, CNS-102-vehicle difference of averages: cat-walk
Protocol: Analyses were conducted using PROC LIFEREG in SAS.
Additionally, three neurological function outcomes were chosen for analysis from those measured on a ‘cat-walk’ at irregular intervals over the duration of the study; stride length (cm), run duration (s), and swing speed (cm/s).
This non-random censoring of the treatment group data precluded using standard comparative statistical methods such as the t-test due the unverifiable compliance of the remaining data with required statistical test assumptions. Consequently, a Monte Carlo estimate of the p-value of the treatment differences was constructed using the bootstrap method.
Survival studies and behavioral tests will be performed in the SOD1 G93A model of ALS. This transgenic mouse harbors a point mutation (G93A), found in familial ALS, in the gene encoding for superoxide dismutase 1 (SOD1). This very well characterized mouse model is widely used in ALS research. […] Motor neuron death in the ventral horn of the spinal cord and loss of myelinated axons in the ventral motor roots lead to paralysis and muscle wasting. Mice initially develop normally and gain weight until approximately 100 days of age. At this point, weight loss (which is usually defined as the onset of disease), muscle weakness, and gradual paralysis start at the hind limbs and muscle wasting start to appear. […] This means that drug efficacy studies using this model can be performed within a relatively short time frame of 4-5 months. To rigorously test the efficacy of candidates in this mouse model, neurological scores are monitored, and motor scores, life span, body weight and mice tested in a battery of behavioral paradigms suitable for motor assessment.

[1] = Bioavailability and brain penetration; conditions: in vivo
[2] = system: HSP70 expression in Neuro2A cells; experiment: HSP70 expression by Western blot in treated Neuro2A cells (Assay 1a/1b); type: cell-based, murine; conditions: for HSP70 Expression, HSP70 by Western Blot: Neuro2A cells, Assay 1a screen at 1 μM
Protocol: HSP70 expression in neuro2A cells treated with CNS-102 analogs are examined, using Western blot analysis. An increased expression of HSP70 will indicate the candidate molecule has the prerequisite activity. This assay has a Z factor of […] and a CV of 11% for CNS-102 at 1 nM to 100 nM.
A preliminary screen and quantitative performance evaluation, and a confirmatory neuroprotective assay are developed from a model of motor neuron dysfunction in a PNS cell line.
The overall strategy, therefore, is to use a sequence of assays, each of which is targeted to address a specific aspect of the disease with the goal of identifying candidates having multiple therapeutic capabilities. These assays are chosen such that a failure to perform at any stage is expected to be fatal to the candidate's suitability as a viable ALS treatment. To this end, the following four therapeutic capabilities and corresponding assays were chosen as shown in the list below. The advancement criteria, as well as assay design where relevant, are also presented. • 1. In some embodiments, the candidates increase HSP70 expression in target cells. The initial screen (pass/fail, Assay 1a) and quantitative evaluation (EC50, Assay 1b) of candidates will use a HSP70 expression assay by Western blot on cellular extracts of treated Neuro2A cells. The screen, Assay 1a, is conducted at a single concentration, requiring a specific level of activity to pass into Assay 1b, the quantitative dose/response determination of the EC50. Only those candidates having an ECK, below 10 nM would be promoted to Assay 2. • 2. In some embodiments, the candidates increase neuronal cell health/growth in the presence of specific inhibitors of GGTase I. The ability of candidates to promote neurite extension will be measured on Neuro2A cells to model whole-cell activities important to synaptic connections and neuronal function. […] Neuroprotection afforded by candidates that have passed the first two assays will be determined on rat hippocampal neurons facing kainic acid induced damage. […] This confirmation will be determined in the SOD1 mouse model.

[3] = system: neuro2A neuroblastoma cell lines; experiment: Neurite outgrowth in Neuro2A cells challenged with GGTase I inhibitor GGTI-298 (Assay 2); type: cell-based, murine; conditions: @ 10 nM, GGTI-298 challenge
Protocol: Neurite outgrowth in neuro2A neuroblastoma cell lines has been widely used as a cellular model for compounds screening in the CNS drug discovery and research. IN some embodiments, the effects of CNS-102 analogs on neurite outgrowth is determined. Cells will be pre-treated with candidates and then subjected to a challenge with GGTase I inhibitor GGTI-298. Retinoic Acid will be added to start the differentiation of these cells. This will identify analogs that protect neurite outgrowth, which is known to be important for establishing synaptic connections and neuronal functions. This assay has a Z factor of 0.4 and a CV of 11% for CNS-102 at 10 nM to 1 μM.
(§1) The overall strategy, therefore, is to use a sequence of assays, each of which is targeted to address a specific aspect of the disease with the goal of identifying candidates having multiple therapeutic capabilities. These assays are chosen such that a failure to perform at any stage is expected to be fatal to the candidate's suitability as a viable ALS treatment. To this end, the following four therapeutic capabilities and corresponding assays were chosen as shown in the list below. The advancement criteria, as well as assay design where relevant, are also presented. • 1. In some embodiments, the candidates increase HSP70 expression in target cells. The initial screen (pass/fail, Assay 1a) and quantitative evaluation (EC50, Assay 1b) of candidates will use a HSP70 expression assay by Western blot on cellular extracts of treated Neuro2A cells. The screen, Assay 1a, is conducted at a single concentration, requiring a specific level of activity to pass into Assay 1b, the quantitative dose/response determination of the EC50. Only those candidates having an ECK, below 10 nM would be promoted to Assay 2. • 2. In some embodiments, the candidates increase neuronal cell health/growth in the presence of specific inhibitors of GGTase I. The ability of candidates to promote neurite extension will be measured on Neuro2A cells to model whole-cell activities important to synaptic connections and neuronal function. Candidates showing >200 cells with outgrowth would be promoted to Assay 3. • 3. In some embodiments, the candidates provide protection to nerve tissue from excitotoxins. Neuroprotection afforded by candidates that have passed the first two assays will be determined on rat hippocampal neurons facing kainic acid induced damage. This is the final animal model before the ALS disease model and candidates that provide >50% protection would be tested in the disease model. • 4. In some embodiments, the candidates increase median survival time by 25% and improve neurological performance compared to control. This confirmation will be determined in the SOD1 mouse model.

GGTase I = GGTase I (Homo sapiens, UniProt P53609); experiment: GGTase I activity detected by fluorescent peptide dansyl-GCVLL; type: biochemical
Water solubility = type: physicochemical
Excerpt: The chemical structure of CNS-102 is shown. We have characterized CNS-102 (MW 330) by ^1H NMR, LC, and ESI mass spectrometry and no evidence of cis isomer was found. […] Such can enable CNS-102 to cross the blood brain barrier.

rat hippocampal neurons = experiment: Rat neuroprotection model, kainic acid induced excitotoxic neuron loss in hippocampus (Assay 3); type: in vivo; conditions: for Rat Neuroprotection, % Protection: kainic acid rat model, 2 or 20 mg/kg
Protocol: Excitotoxicity has been considered as one of the major causes for neuron loss in ALS. A probable cause for excitotoxic neuron death is excess glutamate around the synapses, due to impaired glutamate reuptake capabilities. Intra-cerebral infusion of kainic acid is a well-established and robust model for excitotoxic neuron death that has been used to investigate excitotoxicity for over fifty years. Compounds are tested, e.g., at two concentrations and compare to a vehicle control in a model that quantifies neuron loss in the CA3 area of the hippocampus. Such tests can evaluate blood brain barrier penetration and select compounds that provide neuroprotection from excitotoxic damage.
as §1

SOD1 G93A = conditions: pre-symptomatic administration or treatment at disease onset; cited from earlier work
cultured spinal neurons = conditions: low concentration (1 nM-100 nM); cited from earlier work

## CC(=O)CC/C=C(\C)CC/C=C(\C)CC/C=C(\C)CCC=C(C)C [CNS-102, 5E,9E,13E-geranylgeranylacetone]
SOD1 mouse model of ALS; SOD1 mouse model
  SOD1 Mouse Model, Survival and clinical scores: increase in survival: 9% increase
SOD1 mouse model of ALS; SOD1 mouse model, daily treatments, N=16/treatment
  Increase over vehicle (median survival time): 9%
SOD1 mouse model of ALS; SOD1 mouse model, difference between drug groups not statistically significant at p=0.05
  improvement in median survival, CNS-102 outperformed riluzole by: 50%
SOD1 mouse model of ALS; age P120 ± 1
  Run Duration, CNS-102-vehicle difference of averages: -1.68 s
  Stride Length, CNS-102-vehicle difference of averages: 1.46 cm
  Swing Speed, CNS-102-vehicle difference of averages: 14.58 cm/s
SOD1 mouse model of ALS; age P124 ± 3
  Run Duration, CNS-102-vehicle difference of averages: -1.49 s
  Stride Length, CNS-102-vehicle difference of averages: 1.87 cm
  Swing Speed, CNS-102-vehicle difference of averages: 11.70 cm/s
[1]
  bioavailability and brain penetration: excellent
[2]; murine Neuro2A cells, HSP70 and HSP90 found
  expression of HSPs: increases expression of HSPs
[3]
  Neurite Outgrowth, Cell count relative to negative control: 2.00
GGTase I
  GGTase I activity: modulates GGTase I activity
Water solubility
  intrinsic water solubility: little intrinsic water solubility
Rat hippocampal neurons; hippocampus, locally injected kainic acid, following a single oral dose
  time of peak protection: 72 h
Rat hippocampal neurons
  Rat Neuroprotection, % Protection: 40%
Rat hippocampal neurons; rat kainic acid induced neurotoxicity model, HSP70 in hippocampus and cerebral cortex, HSP60, HSP70, HSP90 upregulated
  expression of HSPs: increases expression of HSPs

## CC/C(=C\CCC(=O)C12CC3CC(CC(C3)C1)C2)CC/C=C(\C)CC/C=C(\C)CCC=C(C)C [CNS-G001]
[2]
  HSP70 Expression, HSP70 by Western Blot: 2.00 × PBS
[3]
  Neurite Outgrowth, Cell count relative to negative control: 1.79
Rat hippocampal neurons
  Rat Neuroprotection, % Protection: 37%

## CCCCCNC(=O)OC(C)CC/C=C(\C)CC/C=C(\C)CCC=C(C)C (stereo not drawn) [CNS-G002]
[3]
  Neurite Outgrowth, Cell count relative to negative control: 1.79

## CC(=O)CC/C=C(\C)CC/C=C(\C)CC/C=C(\C)CC/C=C(\C)CCC=C(C)C [CNS-G003]
[3]
  Neurite Outgrowth, Cell count relative to negative control: 2.74
Rat hippocampal neurons
  Rat Neuroprotection, % Protection: 82%

## CC(C)=CCC/C(C)=C/CC/C(C)=C/CC/C(C)=C/COC(=O)C1CCCCC1 [CNS-G004]
[3]
  Neurite Outgrowth, Cell count relative to negative control: 2.61
Rat hippocampal neurons
  Rat Neuroprotection, % Protection: 76%

## CC(C)=CCC/C(C)=C/CC/C(C)=C/CC/C(C)=C/CC1CCCCC1=O (stereo not drawn) [CNS-G005]
[2]
  HSP70 Expression, HSP70 by Western Blot: 2.78 × PBS
[3]
  Neurite Outgrowth, Cell count relative to negative control: 2.28
Rat hippocampal neurons
  Rat Neuroprotection, % Protection: 83%

## [O-][n+]1cccc(/C(Cl)=N/OC[C@H](O)CN2CCCCC2)c1 [arimoclomol]
SOD1 G93A
  extension of life span: approximately 5 weeks

## geranylgeranyl acetone [GGA]
Cultured spinal neurons
  proteasome inhibitor induced neurotoxicity: reduce proteasome inhibitor induced neurotoxicity
